ChEMBL document CHEMBL1140526, “Effect of varying the 4''-position of arbekacin derivatives on antibacterial activity against MRSA and Pseudomonas aeruginosa” (2007)
In brackets after ≈: the same amount, converted by molar mass.

Assays:
Type in all cases: functional
Staphylococcus aureus [1] = experiment: Antibacterial activity against Staphylococcus aureus 209P JC-1
Staphylococcus aureus [2] = experiment: Antibacterial activity against methicillin-resistant Staphylococcus aureus MF490
Staphylococcus aureus [3] = experiment: Antibacterial activity against methicillin-resistant Staphylococcus aureus MSC03571
Escherichia coli = experiment: Antibacterial activity against Escherichia coli NIH JC2
Pseudomonas aeruginosa [4] = experiment: Antibacterial activity against Pseudomonas aeruginosa PA01
Pseudomonas aeruginosa [5] = experiment: Antibacterial activity against Pseudomonas aeruginosa N101
Pseudomonas aeruginosa [6] = experiment: Antibacterial activity against Pseudomonas aeruginosa GN315
Pseudomonas aeruginosa [7] = experiment: Antibacterial activity against Pseudomonas aeruginosa isolates
Staphylococcus aureus [8] = experiment: Antibacterial activity against methicillin resistant Staphylococcus aureus isolates

| Compound | MIC (Staphylococcus aureus [1]) | MIC (Staphylococcus aureus [2]) | MIC (Staphylococcus aureus [3]) | MIC (Escherichia coli) | MIC (Pseudomonas aeruginosa [4]) | MIC (Pseudomonas aeruginosa [5]) | MIC (Pseudomonas aeruginosa [6]) | MIC50 (Pseudomonas aeruginosa [7]) | MIC90 (Pseudomonas aeruginosa [7]) | MIC50 (Staphylococcus aureus [8]) | MIC90 (Staphylococcus aureus [8]) |
| --- | --- | --- | --- | --- | --- | --- | --- | --- | --- | --- | --- |
| NCC[C@H](O)C(=O)N[C@@H]1C[C@H](N)[C@@H](O[C@H]2O[C@H](CN)CC[C@H]2N)[C@@H](F)[C@H]1O[C@H]1O[C@H](CO)[C@H](O)[C@H](N)[C@H]1O | 0.06 µg/mL (≈ 0.108 µM) | 4 µg/mL (≈ 7.21 µM) | 2 µg/mL (≈ 3.61 µM) | 1 µg/mL (≈ 1.8 µM) | 2 µg/mL (≈ 3.61 µM) | 0.5 µg/mL (≈ 0.902 µM) | 32 µg/mL (≈ 57.7 µM) | – | – | – | – |
| NCC[C@H](O)C(=O)N[C@@H]1C[C@H](N)[C@@H](O[C@H]2O[C@H](CN)CC[C@H]2N)[C@@H](N)[C@H]1O[C@H]1O[C@H](CO)[C@H](O)[C@H](N)[C@H]1O | 0.25 µg/mL (≈ 0.453 µM) | 4 µg/mL (≈ 7.25 µM) | 4 µg/mL (≈ 7.25 µM) | 2 µg/mL (≈ 3.63 µM) | 4 µg/mL (≈ 7.25 µM) | 1 µg/mL (≈ 1.81 µM) | > 64 µg/mL | – | – | – | – |
| NCC[C@H](O)C(=O)N[C@@H]1C[C@H](N)[C@@H](O[C@H]2O[C@H](CN)CC[C@H]2N)[C@H](O)[C@H]1O[C@H]1O[C@H](CO)[C@H](O)[C@H](N)[C@H]1O | 0.13 µg/mL (≈ 0.235 µM) | 32 µg/mL (≈ 57.9 µM) | 16 µg/mL (≈ 29 µM) | 1 µg/mL (≈ 1.81 µM) | 4 µg/mL (≈ 7.24 µM) | 0.25 µg/mL (≈ 0.452 µM) | 32 µg/mL (≈ 57.9 µM) | – | – | – | – |
| [N-]=[N+]=N[C@H]1[C@@H](O[C@H]2O[C@H](CO)[C@H](O)[C@H](N)[C@H]2O)[C@H](NC(=O)[C@@H](O)CCN)C[C@H](N)[C@H]1O[C@H]1O[C@H](CN)CC[C@H]1N | 0.25 µg/mL (≈ 0.433 µM) | 4 µg/mL (≈ 6.92 µM) | 4 µg/mL (≈ 6.92 µM) | 1 µg/mL (≈ 1.73 µM) | 8 µg/mL (≈ 13.8 µM) | 0.5 µg/mL (≈ 0.866 µM) | 128 µg/mL (≈ 222 µM) | – | – | – | – |
| NCC[C@H](O)C(=O)N[C@@H]1C[C@H](N)[C@@H](O[C@H]2O[C@H](CN)CC[C@H]2N)[C@H](O)[C@H]1O[C@H]1O[C@H](CO)[C@H](N)[C@H](N)[C@H]1O | 4 µg/mL (≈ 7.25 µM) | > 128 µg/mL | > 128 µg/mL | 16 µg/mL (≈ 29 µM) | 64 µg/mL (≈ 116 µM) | 8 µg/mL (≈ 14.5 µM) | > 128 µg/mL | – | – | – | – |
| NCC[C@H](O)C(=O)N[C@@H]1C[C@H](N)[C@@H](O[C@H]2O[C@H](CN)CC[C@H]2N)[C@H](O)[C@H]1O[C@H]1O[C@H](CO)C[C@H](N)[C@H]1O | 0.13 µg/mL (≈ 0.242 µM) | > 64 µg/mL | 64 µg/mL (≈ 119 µM) | 2 µg/mL (≈ 3.73 µM) | 4 µg/mL (≈ 7.45 µM) | 0.5 µg/mL (≈ 0.932 µM) | 32 µg/mL (≈ 59.6 µM) | – | – | – | – |
| NCC[C@H](O)C(=O)N[C@@H]1C[C@H](N)[C@@H](O[C@H]2O[C@H](CN)CC[C@H]2N)[C@@H](O)[C@H]1O[C@H]1O[C@H](CO)[C@H](O)[C@H](N)[C@H]1O | 0.06 µg/mL (≈ 0.109 µM) | 1 µg/mL (≈ 1.81 µM) | 1 µg/mL (≈ 1.81 µM) | 0.5 µg/mL (≈ 0.905 µM) | 1 µg/mL (≈ 1.81 µM) | 0.25 µg/mL (≈ 0.452 µM) | 16 µg/mL (≈ 29 µM) | 1 µg/mL (≈ 1.81 µM) | 4 µg/mL (≈ 7.24 µM) | 0.25 µg/mL (≈ 0.452 µM) | 0.25 µg/mL (≈ 0.452 µM) |
| NCC[C@H](O)C(=O)N[C@@H]1C[C@H](N)[C@@H](O[C@H]2O[C@H](CN)CC[C@H]2N)[C@H](O)[C@H]1O[C@H]1O[C@@H](CO)[C@@H](O)[C@H](N)[C@H]1O | 0.06 µg/mL (≈ 0.109 µM) | 2 µg/mL (≈ 3.62 µM) | 2 µg/mL (≈ 3.62 µM) | 1 µg/mL (≈ 1.81 µM) | 2 µg/mL (≈ 3.62 µM) | 0.25 µg/mL (≈ 0.452 µM) | 8 µg/mL (≈ 14.5 µM) | – | – | – | – |
| NCC[C@H](O)C(=O)N[C@@H]1C[C@H](N)[C@@H](O[C@H]2O[C@H](CN)CC[C@H]2N)[C@@H](Cl)[C@H]1O[C@H]1O[C@H](CO)[C@H](O)[C@H](N)[C@H]1O | 0.13 µg/mL (≈ 0.228 µM) | 2 µg/mL (≈ 3.5 µM) | 2 µg/mL (≈ 3.5 µM) | 1 µg/mL (≈ 1.75 µM) | 4 µg/mL (≈ 7 µM) | 0.5 µg/mL (≈ 0.876 µM) | > 32 µg/mL | – | – | – | – |
| CNC[C@@H]1CC[C@@H](N)[C@@H](O[C@H]2[C@@H](O)[C@@H](O[C@H]3O[C@H](CO)[C@H](O)[C@H](N)[C@H]3O)[C@H](NC(=O)[C@@H](O)CCN)C[C@@H]2N)O1 | 0.13 µg/mL (≈ 0.229 µM) | 4 µg/mL (≈ 7.06 µM) | 1 µg/mL (≈ 1.76 µM) | 1 µg/mL (≈ 1.76 µM) | 2 µg/mL (≈ 3.53 µM) | 0.5 µg/mL (≈ 0.882 µM) | 4 µg/mL (≈ 7.06 µM) | – | – | – | – |
| [N-]=[N+]=N[C@@H]1[C@H](N)[C@@H](O)[C@@H](O[C@@H]2[C@@H](O)[C@H](O[C@H]3O[C@H](CN)CC[C@H]3N)[C@@H](N)C[C@H]2NC(=O)[C@@H](O)CCN)O[C@@H]1CO | 0.13 µg/mL (≈ 0.225 µM) | > 128 µg/mL | 128 µg/mL (≈ 222 µM) | 2 µg/mL (≈ 3.46 µM) | 16 µg/mL (≈ 27.7 µM) | 0.5 µg/mL (≈ 0.866 µM) | 64 µg/mL (≈ 111 µM) | – | – | – | – |
| NCC[C@H](O)C(=O)N[C@@H]1C[C@H](N)[C@@H](O[C@H]2O[C@H](CN)CC[C@H]2N)[C@H](O)[C@H]1O[C@H]1O[C@H](CO)[C@@H](O)[C@H](N)[C@H]1O [ARBEKACIN] | 0.06 µg/mL (≈ 0.109 µM) | 64 µg/mL (≈ 116 µM) | 16 µg/mL (≈ 29 µM) | 1 µg/mL (≈ 1.81 µM) | 2 µg/mL (≈ 3.62 µM) | 0.25 µg/mL (≈ 0.452 µM) | 16 µg/mL (≈ 29 µM) | 2 µg/mL (≈ 3.62 µM) | 16 µg/mL (≈ 29 µM) | 0.5 µg/mL (≈ 0.905 µM) | 2 µg/mL (≈ 3.62 µM) |
